# Experimental data published in paper PMC4363092 (Journal of medicinal chemistry, 2014).
# Where “and” joins values, the source holds several entries; their conditions need not be identical. Equal entries are not always repeated. Entries after “also recorded” stand apart in the source; their conditions may differ. Where two headings read alike, the source gives them in different places.
# How the values were obtained:
# P2Y11 receptor [1] = conditions: cited from earlier work; for potency relative to ATP at the P2Y11 receptor: higher potency than ATP
# NPP1 = conditions: cited from earlier work; for Ki: read-out: Ki, NPP1
# human NTPDase1,2,3,8 = assay: Inhibition of NTPDase activity, text statements pooled over NTPDase1,2,3,8; type: biochemical; conditions: analogue 100 μM, pooled over four NTPDases
# human NTPDase1 = target: T1, human NTPDase1 (Homo sapiens, UniProt P49961); conditions: analogue 100 μM as substrate; activity with 100 μM ATP set as 100%
# T1 sequence (P49961 1-510): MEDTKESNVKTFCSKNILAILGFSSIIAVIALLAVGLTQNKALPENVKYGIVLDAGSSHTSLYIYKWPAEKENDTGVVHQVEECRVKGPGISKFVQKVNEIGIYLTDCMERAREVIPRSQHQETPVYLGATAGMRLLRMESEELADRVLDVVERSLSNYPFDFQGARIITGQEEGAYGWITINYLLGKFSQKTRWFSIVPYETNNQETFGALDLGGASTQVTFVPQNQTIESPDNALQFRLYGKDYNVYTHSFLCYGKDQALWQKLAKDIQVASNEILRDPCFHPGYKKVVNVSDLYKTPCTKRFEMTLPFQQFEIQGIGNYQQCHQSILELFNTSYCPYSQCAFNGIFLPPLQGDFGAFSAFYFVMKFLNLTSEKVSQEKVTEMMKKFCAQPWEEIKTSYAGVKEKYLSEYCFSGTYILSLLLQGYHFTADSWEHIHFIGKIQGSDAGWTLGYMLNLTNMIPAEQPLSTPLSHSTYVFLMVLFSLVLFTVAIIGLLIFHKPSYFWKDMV
# human NTPDase8 = target: T2, human NTPDase8 (Homo sapiens, UniProt Q5MY95); conditions: analogue 100 μM as substrate; activity with 100 μM ATP set as 100%
# T2 sequence (Q5MY95 1-495): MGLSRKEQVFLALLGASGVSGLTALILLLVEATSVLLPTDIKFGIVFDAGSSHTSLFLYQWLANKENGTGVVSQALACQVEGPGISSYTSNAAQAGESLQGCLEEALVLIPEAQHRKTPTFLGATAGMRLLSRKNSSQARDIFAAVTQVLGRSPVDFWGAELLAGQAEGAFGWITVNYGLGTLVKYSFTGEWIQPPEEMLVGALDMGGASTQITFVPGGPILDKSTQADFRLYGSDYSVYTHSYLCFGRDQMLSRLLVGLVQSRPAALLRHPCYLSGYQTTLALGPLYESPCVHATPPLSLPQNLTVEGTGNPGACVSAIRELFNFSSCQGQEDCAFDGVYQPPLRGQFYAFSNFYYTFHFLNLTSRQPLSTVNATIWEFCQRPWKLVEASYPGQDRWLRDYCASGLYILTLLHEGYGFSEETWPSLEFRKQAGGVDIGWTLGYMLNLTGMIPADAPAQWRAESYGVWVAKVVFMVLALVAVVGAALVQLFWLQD
# human NTPDase3 = target: T3, human NTPDase3 (Homo sapiens, UniProt O75355); conditions: analogue 100 μM as substrate; activity with 100 μM ATP set as 100%
# T3 sequence (O75355 1-529): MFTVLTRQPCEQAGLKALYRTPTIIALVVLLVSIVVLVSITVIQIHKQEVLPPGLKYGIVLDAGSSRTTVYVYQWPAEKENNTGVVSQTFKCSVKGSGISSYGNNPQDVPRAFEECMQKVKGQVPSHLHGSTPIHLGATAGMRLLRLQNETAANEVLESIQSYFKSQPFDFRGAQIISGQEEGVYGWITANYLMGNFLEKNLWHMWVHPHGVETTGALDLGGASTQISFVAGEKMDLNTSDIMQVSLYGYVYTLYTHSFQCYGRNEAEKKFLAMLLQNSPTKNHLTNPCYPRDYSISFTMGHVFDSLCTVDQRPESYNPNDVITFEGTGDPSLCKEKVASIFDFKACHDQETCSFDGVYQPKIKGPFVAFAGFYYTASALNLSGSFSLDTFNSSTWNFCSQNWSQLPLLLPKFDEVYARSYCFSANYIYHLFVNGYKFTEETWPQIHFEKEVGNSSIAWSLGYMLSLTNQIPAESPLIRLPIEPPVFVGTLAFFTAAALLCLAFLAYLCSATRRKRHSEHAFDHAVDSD
# human NTPDase2 = target: T4, human NTPDase2 (Homo sapiens, UniProt Q9Y5L3); conditions: analogue 100 μM as substrate; activity with 100 μM ATP set as 100%
# T4 sequence (Q9Y5L3 1-495): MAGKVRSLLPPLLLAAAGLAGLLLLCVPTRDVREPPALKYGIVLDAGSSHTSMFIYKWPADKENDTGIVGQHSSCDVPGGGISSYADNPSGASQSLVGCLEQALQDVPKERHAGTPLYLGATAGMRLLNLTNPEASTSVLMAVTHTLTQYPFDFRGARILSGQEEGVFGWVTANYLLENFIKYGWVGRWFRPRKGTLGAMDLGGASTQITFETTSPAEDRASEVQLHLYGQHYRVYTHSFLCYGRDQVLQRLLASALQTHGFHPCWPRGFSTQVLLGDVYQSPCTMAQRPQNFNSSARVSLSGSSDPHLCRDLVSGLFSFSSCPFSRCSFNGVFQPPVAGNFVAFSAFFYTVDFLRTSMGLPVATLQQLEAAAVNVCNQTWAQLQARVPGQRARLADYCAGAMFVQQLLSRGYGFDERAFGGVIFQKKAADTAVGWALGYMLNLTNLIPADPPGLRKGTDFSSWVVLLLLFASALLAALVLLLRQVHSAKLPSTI
# P2Y11 receptor [2] = target: T5, P2Y11 receptor (Homo sapiens, UniProt Q96G91); assay: [Ca2+]i elevation in 1321N1 astrocytoma cells expressing GFP-P2Y11 receptor; type: cell-based; conditions: for potency relative to ATP at the P2Y11 receptor: more potent than ATP
# T5 sequence (Q96G91 1-374): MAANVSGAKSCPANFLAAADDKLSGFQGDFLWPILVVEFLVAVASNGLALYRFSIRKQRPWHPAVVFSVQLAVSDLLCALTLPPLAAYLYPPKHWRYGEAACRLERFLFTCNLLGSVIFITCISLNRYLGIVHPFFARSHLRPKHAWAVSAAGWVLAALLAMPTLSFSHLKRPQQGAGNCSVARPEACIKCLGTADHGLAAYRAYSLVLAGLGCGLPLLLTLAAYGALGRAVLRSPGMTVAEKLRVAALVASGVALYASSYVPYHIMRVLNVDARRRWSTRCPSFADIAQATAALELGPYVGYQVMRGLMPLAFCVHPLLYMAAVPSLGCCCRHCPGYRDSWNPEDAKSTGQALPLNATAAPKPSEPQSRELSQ
# human NPP1 = target: T6, human NPP1 (Homo sapiens, UniProt P22413); assay: Inhibition of NPP1, pNP-TMP as substrate; type: biochemical; conditions: Dixon and Cornish–Bowden methods
# T6 sequence (P22413 1-925): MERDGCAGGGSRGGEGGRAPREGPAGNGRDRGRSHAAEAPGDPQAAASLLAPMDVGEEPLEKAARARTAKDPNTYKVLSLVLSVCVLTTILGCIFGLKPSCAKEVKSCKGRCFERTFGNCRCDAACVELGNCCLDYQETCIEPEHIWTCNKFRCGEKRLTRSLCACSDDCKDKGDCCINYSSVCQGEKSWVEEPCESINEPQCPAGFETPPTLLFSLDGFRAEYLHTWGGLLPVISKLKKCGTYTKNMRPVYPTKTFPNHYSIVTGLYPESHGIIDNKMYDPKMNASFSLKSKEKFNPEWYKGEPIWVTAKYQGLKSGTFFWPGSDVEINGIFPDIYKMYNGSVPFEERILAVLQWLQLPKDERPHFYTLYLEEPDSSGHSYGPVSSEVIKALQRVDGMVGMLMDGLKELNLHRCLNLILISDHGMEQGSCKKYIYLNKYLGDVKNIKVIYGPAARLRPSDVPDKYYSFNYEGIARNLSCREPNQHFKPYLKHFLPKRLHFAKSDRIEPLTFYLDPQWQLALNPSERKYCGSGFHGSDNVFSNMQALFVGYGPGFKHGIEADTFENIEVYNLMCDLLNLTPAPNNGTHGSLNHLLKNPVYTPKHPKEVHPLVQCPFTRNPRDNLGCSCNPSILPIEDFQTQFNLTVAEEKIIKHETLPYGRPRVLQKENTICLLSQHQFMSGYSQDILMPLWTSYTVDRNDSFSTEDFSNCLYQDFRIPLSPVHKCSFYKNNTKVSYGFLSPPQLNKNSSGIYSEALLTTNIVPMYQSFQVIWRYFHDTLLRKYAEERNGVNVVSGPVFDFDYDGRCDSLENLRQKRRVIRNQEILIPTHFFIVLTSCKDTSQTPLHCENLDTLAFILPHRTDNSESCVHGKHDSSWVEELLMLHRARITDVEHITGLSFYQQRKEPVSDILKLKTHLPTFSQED
SMILES,"inhibition of ATP hydrolysis by NTPDase1,2,3,8 (human NTPDase1,2,3,8)","relative activity (%) ± SD of ATP hydrolysis, NTPDase1 (human NTPDase1) [%]","relative activity (%) ± SD of ATP hydrolysis, NTPDase8 (human NTPDase8) [%]","relative activity (%) ± SD of ATP hydrolysis, NTPDase3 (human NTPDase3) [%]","relative activity (%) ± SD of ATP hydrolysis, NTPDase2 (human NTPDase2) [%]",further results
"CCCSc1nc(N)c2ncn([C@@H]3O[C@H](COP(O)(=S)OP(=O)(O)C(Cl)(Cl)P(=O)(O)O)[C@@H](O)[C@H]3O)c2n1 (single isomer, unassigned; isomer a) [2-(propylthio)adenosine 5′-α-thio-β,γ-(dichloromethylene)-triphosphate, isomer A, 2-(propylthio)adenosine 5′-α-thio-β,γ-(dichloromethylene)-triphosphate]",,,,,,potency relative to ATP at the P2Y11 receptor (P2Y11 receptor [1]): ~ 3 fold
"BP(=O)(OC[C@H]1O[C@@H](n2cnc3c(N)ncnc32)[C@H](O)[C@@H]1O)OP(=O)(O)CP(=O)(O)O (single isomer, unassigned; isomer a) [adenosine 5′-α-borano-β,γ-methylenetriphosphate (isomer A), adenosine 5′-α-borano-β,γ-methylenetriphosphate]",,,,,,Ki (NPP1; ref 22 (b65 prints ref 44)): 0.5 µM
"CCCSc1nc(N)c2ncn([C@@H]3O[C@H](COP(O)(=S)OP(=O)(O)C(Cl)(Cl)P(=O)(O)O)[C@@H](O)[C@H]3O)c2n1 (single isomer, unassigned; isomer b) [2-(propylthio)adenosine 5′-α-thio-β,γ-(dichloromethylene)-triphosphate, isomer B, 2-(propylthio)adenosine 5′-α-thio-β,γ-(dichloromethylene)-triphosphate]",,,,,,potency relative to ATP at the P2Y11 receptor (P2Y11 receptor [1]): ~ 4 fold
Nc1ncnc2c1ncn2[C@@H]1O[C@H](CO[P@](O)(=S)OP(=O)(O)CP(=O)(O)O)[C@@H](O)[C@H]1O [1a],did not interfere,4.4 ± 0.2,4.4 ± 0.2,4.2 ± 0.2,4.7 ± 1.7,"EC50 ± SEM (μM), [Ca^2+]i elevation, P2Y11 (P2Y11 receptor [2]; 1321N1 cells, nr = no response up to 10 μM): not agonists; also recorded: inactive; also recorded: not active, nr ^c"
Nc1ncnc2c1ncn2[C@@H]1O[C@H](CO[P@@](O)(=S)OP(=O)(O)CP(=O)(O)O)[C@@H](O)[C@H]1O [1b],did not interfere,5.4 ± 0.2,5.3 ± 0.2,4.8 ± 0.2,5.5 ± 0.3,"type of inhibition (human NPP1): mixed-type inhibition, predominantly competitive; potency relative to ATP at the P2Y11 receptor (P2Y11 receptor [2]): 7 fold and ~ 7 fold"
Nc1ncnc2c1ncn2[C@@H]1O[C@H](CO[P@@](O)(=S)OP(=O)(O)C(Cl)(Cl)P(=O)(O)O)[C@@H](O)[C@H]1O [2b],did not interfere,5.4 ± 0.2,5.3 ± 0.2,5.4 ± 0.2,5.5 ± 0.2,"type of inhibition (human NPP1): mixed-type inhibition, predominantly competitive; EC50 (P2Y11 receptor [2]): 3 ± 1.46 µM; potency relative to ATP at the P2Y11 receptor (P2Y11 receptor [2]): 2 fold and ~ 2 fold"
Nc1ncnc2c1ncn2[C@@H]1O[C@H](CO[P@](=O)(O)O[P@](=O)(O)O[P@@](=O)(O)S)[C@@H](O)[C@H]1O [ATP-γ-S],,,,,,"pEC50, P2Y11 receptor (P2Y11 receptor [1]): 5.52"
"Nc1ncnc2c1ncn2[C@H]1C[C@H](O)[C@@H](COP(=O)(O)CP(=O)(O)OP(=O)(O)OP(=O)(O)CP(=O)(O)OC[C@H]2O[C@@H](n3cnc4c(N)ncnc43)C[C@@H]2O)O1 [bis(2′-deoxyadenosine) α,β:δ,ε-dimethylenepentaphosphonate]",,,,,,"IC50 (NPP1; read-out: IC50, NPP1): 13 µM; Ki (NPP1): 9 µM"
Nc1ncnc2c1nc(S)n2[C@@H]1O[C@H](COP(=O)(O)OP(=O)(O)OP(=O)(O)O)[C@@H](O)[C@H]1O [compound 4],,43 ± 2,73 ± 1,51 ± 3,73 ± 2,
